Data taken from PubChem BioAssay AID1963862 (Molecular Pharmacology Branch, DTP, NCI, 2024).
pIC50: −log10 of the molar value.

Tested on: KRAS patient-derived spheroids with HUVEC/MSC, viability
Test: Anticancer human tumor 941728-121-R-J1-PDC patient-derived lung adenocarcinoma cell line growth inhibition [KRAS2]
Conditions: for pIC50: curve of first compound; for viability, T/C: stronger effect = lower value
Outline: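 Combination screen of spheroid viability in tumor-cell co-cultures with endothelial (HUVEC) and mesenchymal stem cell stroma. Each agent was tested in half-log dilutions, topping at clinical Cmax or at 10 microM without a known Cmax.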

[1] = second compound 0.1 µM, first compound 0.0316 µM
[2] = second compound 0.1 µM, first compound 0.1 µM
[3] = second compound 0.1 µM, first compound 0.316 µM
[4] = second compound 0.1 µM, first compound 1 µM
[5] = second compound 0.316 µM, first compound 0.0316 µM
[6] = second compound 0.316 µM, first compound 0.1 µM
[7] = second compound 0.316 µM, first compound 0.316 µM
[8] = second compound 0.316 µM, first compound 1 µM
[9] = second compound 1 µM, first compound 0.0316 µM
[10] = second compound 1 µM, first compound 0.1 µM
[11] = second compound 1 µM, first compound 0.316 µM
[12] = second compound 1 µM, first compound 1 µM
[13] = second compound 3.16 µM, first compound 0.0316 µM
[14] = second compound 3.16 µM, first compound 0.1 µM
[15] = second compound 3.16 µM, first compound 0.316 µM
[16] = second compound 3.16 µM, first compound 1 µM
[17] = second compound 10 µM, first compound 0.0316 µM
[18] = second compound 10 µM, first compound 0.1 µM
[19] = second compound 10 µM, first compound 0.316 µM
[20] = second compound 10 µM, first compound 1 µM
[21] = second compound 0.1 µM, first compound 3.16 µM
[22] = second compound 0.1 µM, first compound 10 µM
[23] = second compound 0.316 µM, first compound 3.16 µM
[24] = second compound 0.316 µM, first compound 10 µM
[25] = second compound 1 µM, first compound 3.16 µM
[26] = second compound 1 µM, first compound 10 µM
[27] = second compound 3.16 µM, first compound 3.16 µM
[28] = second compound 3.16 µM, first compound 10 µM
[29] = second compound 10 µM, first compound 3.16 µM
[30] = second compound 10 µM, first compound 10 µM
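Note: spheroids exposed to agents for seven days before readout.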

| Compound | pIC50 (second compound 0.1 µM) | pIC50 (second compound 0.316 µM) | pIC50 (second compound 1 µM) | pIC50 (second compound 3.16 µM) | pIC50 (second compound 10 µM) | viability, T/C [1] | viability, T/C [2] | viability, T/C [3] | viability, T/C [4] | viability, T/C [5] | viability, T/C [6] | viability, T/C [7] | viability, T/C [8] | viability, T/C [9] | viability, T/C [10] | viability, T/C [11] | viability, T/C [12] | viability, T/C [13] | viability, T/C [14] | viability, T/C [15] | other results |
| --- | --- | --- | --- | --- | --- | --- | --- | --- | --- | --- | --- | --- | --- | --- | --- | --- | --- | --- | --- | --- | --- |
| CCN1CCN(Cc2ccc(Nc3ncc(F)c(-c4cc(F)c5nc(C)n(C(C)C)c5c4)n3)nc2)CC1 + COc1cc2nc(C)nc(NC(C)c3cc(N)cc(C(F)(F)F)c3)c2cc1OC1CCOC1 | > 8.50 | > 8.50 | > 8.50 | > 8.50 | > 8.50 | 34.2% | 36.8% | 42% | 43.3% | 28.8% | 31.7% | 35.3% | 40.8% | 28.5% | 27.7% | 22.1% | 32.9% | 21.1% | 19.5% | 15.6% | viability, T/C (second compound 0.1 µM, first compound 0.00316 µM): 45.9%; viability, T/C (second compound 0.1 µM, first compound 0.01 µM): 41%; viability, T/C (second compound 0.316 µM, first compound 0.00316 µM): 44.2%; viability, T/C (second compound 0.316 µM, first compound 0.01 µM): 35.3%; viability, T/C (second compound 1 µM, first compound 0.00316 µM): 27.8%; viability, T/C (second compound 1 µM, first compound 0.01 µM): 28.7%; viability, T/C (second compound 3.16 µM, first compound 0.00316 µM): 23.3%; viability, T/C (second compound 3.16 µM, first compound 0.01 µM): 22.7%; viability, T/C [16]: 14.5%; viability, T/C (second compound 10 µM, first compound 0.00316 µM): 17.2%; viability, T/C (second compound 10 µM, first compound 0.01 µM): 6.08%; viability, T/C [17]: 2.12%; viability, T/C [18]: 0.46%; viability, T/C [19]: 0.87%; viability, T/C [20]: 0.85% |
| CCNC(=O)CC1N=C(c2ccc(Cl)cc2)c2cc(OC)ccc2-n2c(C)nnc21 (stereo not given) + COc1cc2nc(C)nc(NC(C)c3cc(N)cc(C(F)(F)F)c3)c2cc1OC1CCOC1 | 7.44 | > 7.50 | > 7.50 | > 7.50 | > 7.50 | 49.5% | 48.2% | 30.6% | 16.1% | 46.2% | 42.6% | 34.4% | 12.6% | 45.1% | 40.7% | 29.2% | 8.81% | 38.3% | 33% | 23.5% | viability, T/C [21]: 11.1%; viability, T/C [22]: 9.43%; viability, T/C [23]: 9.51%; viability, T/C [24]: 9.32%; viability, T/C [25]: 7.25%; viability, T/C [26]: 6.02%; viability, T/C [16]: 8.14%; viability, T/C [27]: 7.37%; viability, T/C [28]: 8.71%; viability, T/C [17]: 20.3%; viability, T/C [18]: 13.9%; viability, T/C [19]: 14.2%; viability, T/C [20]: 3.3%; viability, T/C [29]: 2.65%; viability, T/C [30]: 1.91% |
| Cn1nccc1Nc1nccc(-c2cc3c(s2)C(C)(C)N(CCN2CCOCC2)C3=O)n1 + COc1cc2nc(C)nc(NC(C)c3cc(N)cc(C(F)(F)F)c3)c2cc1OC1CCOC1 | 6.94 | 6.84 | 7.23 | > 7.50 | > 7.50 | 60.1% | 52.7% | 43.7% | 39.5% | 64.1% | 55.3% | 38.9% | 38.6% | 55.9% | 44.3% | 41.1% | 37.5% | 46.5% | 46.7% | 40.5% | viability, T/C [21]: 39.2%; viability, T/C [22]: 37.8%; viability, T/C [23]: 39.1%; viability, T/C [24]: 33.9%; viability, T/C [25]: 38.4%; viability, T/C [26]: 35.1%; viability, T/C [16]: 40.6%; viability, T/C [27]: 36.3%; viability, T/C [28]: 31.5%; viability, T/C [17]: 30.7%; viability, T/C [18]: 30.2%; viability, T/C [19]: 22.4%; viability, T/C [20]: 20.4%; viability, T/C [29]: 15%; viability, T/C [30]: 11.2% |
